Experimental data published in paper PMC8954508, “α-Glucosidase and Bacterial β-Glucuronidase Inhibitors from the Stems of Schisandra sphaerandra Staph” (Pharmaceuticals, 2022).
Read-outs that look alike come from different tables or passages of the source.

Assays:
Type in all cases: biochemical
[1] = target: T1, bacterial β-glucuronidase (BGUS) (Escherichia coli, UniProt P05804); test: BGUS (β-glucuronidase) inhibitory assay; settings: in vitro; for IC50: means ± SD
Description: (§1) The AGS [23, 24, 25, 26] and BGUS [27] inhibitory activities were evaluated by the methods reported in the literature, respectively.

α-Glucosidase (AGS) [2] = target: T2, α-Glucosidase (AGS) (Saccharomyces cerevisiae, UniProt P53341); test: Inhibition kinetics against AGS (Lineweaver–Burk plots); settings: for Ki: AGS, secondary plot of slope versus [I], read-out: Ki (inhibition constant of the enzyme); for mode of inhibition against AGS: Lineweaver–Burk plots
Description: (§2) The mode of inhibition for the active compounds was determined by the Lineweaver–Burk plot fitted by GraphPad Prism 8.0 software. The Km value and the Vmax value were obtained from the slope and Y-axis intercept of the Lineweaver–Burk plot based on the following equation:(1) Vmax=1/Y−intercept (2) Km=slope× Vmax
(§3) The Ki and Ki’ values were available by secondary plotting of the slope and Y-intercept on the Lineweaver–Burk plot versus the inhibitor [I] through the following equations:(3) Slope=Km/Vmax+Km[I]/VmaxKi (4) Y−intercept=1/Vmax+[I]/VmaxKi′

α-Glucosidase (AGS) [3] = target: T2, α-Glucosidase (AGS); test: AGS (α-glucosidase) inhibitory assay
Description: as §1

[4] = target: T1, bacterial β-glucuronidase (BGUS); test: Inhibition kinetics against BGUS (Lineweaver–Burk plots)
Description: as §2, §3

[5] = in vitro, means ± SD, read-out: IC50 α-Glucosidase

T1 sequence (P05804 whole entry): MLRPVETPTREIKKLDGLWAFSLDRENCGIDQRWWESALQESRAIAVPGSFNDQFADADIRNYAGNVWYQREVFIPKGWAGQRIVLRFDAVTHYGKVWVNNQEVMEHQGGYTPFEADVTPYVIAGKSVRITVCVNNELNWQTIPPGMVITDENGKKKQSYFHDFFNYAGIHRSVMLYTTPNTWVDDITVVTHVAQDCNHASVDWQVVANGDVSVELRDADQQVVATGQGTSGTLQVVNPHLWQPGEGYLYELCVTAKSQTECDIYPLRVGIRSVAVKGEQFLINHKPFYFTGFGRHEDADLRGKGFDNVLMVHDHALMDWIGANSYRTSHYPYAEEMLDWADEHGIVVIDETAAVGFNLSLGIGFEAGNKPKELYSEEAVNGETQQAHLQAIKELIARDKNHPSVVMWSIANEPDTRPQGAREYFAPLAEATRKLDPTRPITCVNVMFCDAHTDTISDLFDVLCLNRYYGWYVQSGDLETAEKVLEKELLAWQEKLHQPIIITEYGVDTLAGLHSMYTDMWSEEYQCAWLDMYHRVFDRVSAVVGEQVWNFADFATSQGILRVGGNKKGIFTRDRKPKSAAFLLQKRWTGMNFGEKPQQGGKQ
T2 sequence (P53341 whole entry): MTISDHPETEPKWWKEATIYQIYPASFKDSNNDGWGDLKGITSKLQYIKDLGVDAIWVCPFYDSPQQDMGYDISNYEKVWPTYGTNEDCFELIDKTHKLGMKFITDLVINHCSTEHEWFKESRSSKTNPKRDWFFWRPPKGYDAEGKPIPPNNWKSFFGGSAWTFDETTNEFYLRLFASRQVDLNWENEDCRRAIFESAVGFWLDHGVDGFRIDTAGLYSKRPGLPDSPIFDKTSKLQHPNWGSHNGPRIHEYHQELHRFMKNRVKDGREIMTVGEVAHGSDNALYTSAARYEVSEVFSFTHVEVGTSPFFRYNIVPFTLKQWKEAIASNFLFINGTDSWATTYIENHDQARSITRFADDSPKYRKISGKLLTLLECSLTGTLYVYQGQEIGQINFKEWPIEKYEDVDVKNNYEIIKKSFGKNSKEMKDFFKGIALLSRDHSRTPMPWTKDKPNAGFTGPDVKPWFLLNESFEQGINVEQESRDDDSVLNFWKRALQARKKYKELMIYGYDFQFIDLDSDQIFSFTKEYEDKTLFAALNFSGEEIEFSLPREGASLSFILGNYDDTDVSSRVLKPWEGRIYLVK

SMILES	BGUS inhibitory activity (in words) [1]	IC50 [1] [µM]	Ki (α-Glucosidase (AGS) [2]) [µM]	mode of inhibition against AGS (α-Glucosidase (AGS) [2])	IC50 (α-Glucosidase (AGS) [3]; [5]) [µM]	IC50 (α-Glucosidase (AGS) [3]) [µM]	mode of inhibition against BGUS [4]
C=C(C)[C@@H]1CC[C@@H]2[C@]3(CC[C@]4(C)[C@@H]([C@H](C)CC/C=C(/C)C(=O)O)CC[C@@]24C)C[C@]13CCC(=O)OC [Compound 4, 3,4-seco-(24Z)-cycloart-4(28),24-diene-3,26-dioic-3-methyl ester]	weak activity	155 ± 4.68	7.97	competitive inhibitors	14.1 ± 0.29		
CC(=O)OC1CC2=C(CCC3C(=C2)C=CC(=O)OC3(C)C)C2(C)CCC(C(C)C3CC=C(C)C(=O)O3)C12C (stereo not shown) [Compound 1, Sphaerandralide A]			35.8	mixed-type inhibitors		61.5 ± 1.75	
C=C(C)[C@@H]1CC[C@@H]2[C@]3(CC[C@]4(C)C(=O)CC[C@@]24C)C[C@]13CCC(=O)OC [Compound 5, schiglausin L]				could not be well defined	42.9 ± 1.04		
O=C(O)[C@@H](O)[C@H]1OC(=O)[C@H](O)[C@H]1O [DSL, D-Saccharic 1,4-lactone, reference compound]		56.9 ± 1.57					
CC1=CCC(C(C)C2CCC3(C)C4CCC5C(C)(C)OC(=O)C=CC56CC46CCC23C)OC1=O (stereo not shown) [Compound 3, schisanlactone B]		14.7 ± 0.1	10.5	mixed-type inhibitors	29.5 ± 0.7		mixed-type inhibitor
